Laboratory results from PubChem BioAssay AID2060498 (Molecular Pharmacology Branch, DTP, NCI, 2025).
Values belong to the compound of their own block, whether it stands above or below them.

System: 171881-019-R-J1-PDC tumor spheroids, viability
Experiment: Anticancer human tumor 171881-019-R-J1-PDC patient-derived invasive breast carcinoma cell line growth inhibition [GQUAD]
Settings: spheroids with HUVEC and MSC; for IC50: curve of first compound; for viability, T/C: stronger effect = lower value
How it was run: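 Viability of tumor cells grown as complex spheroids with endothelial and stromal cells, exposed to drug combinations. Top concentration at or near clinical Cmax (else 10 microM), diluted in half-log increments.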

[1] = second compound 0.0316 µM, first compound 0.0316 µM
[2] = second compound 0.0316 µM, first compound 0.1 µM
[3] = second compound 0.0316 µM, first compound 0.316 µM
[4] = second compound 0.0316 µM, first compound 1 µM
[5] = second compound 0.0316 µM, first compound 3.16 µM
[6] = second compound 0.0316 µM, first compound 10 µM
[7] = second compound 0.1 µM, first compound 0.0316 µM
[8] = second compound 0.1 µM, first compound 0.1 µM
[9] = second compound 0.1 µM, first compound 0.316 µM
[10] = second compound 0.1 µM, first compound 1 µM
[11] = second compound 0.1 µM, first compound 3.16 µM
[12] = second compound 0.1 µM, first compound 10 µM
[13] = second compound 0.316 µM, first compound 0.0316 µM
[14] = second compound 0.316 µM, first compound 0.1 µM
[15] = second compound 0.316 µM, first compound 0.316 µM
[16] = second compound 0.316 µM, first compound 1 µM
[17] = second compound 0.316 µM, first compound 3.16 µM
[18] = second compound 0.316 µM, first compound 10 µM
[19] = second compound 1 µM, first compound 0.0316 µM
[20] = second compound 1 µM, first compound 0.1 µM
[21] = second compound 1 µM, first compound 0.316 µM
[22] = second compound 1 µM, first compound 1 µM
[23] = second compound 1 µM, first compound 3.16 µM
[24] = second compound 1 µM, first compound 10 µM
[25] = second compound 3.16 µM, first compound 0.0316 µM
[26] = second compound 3.16 µM, first compound 0.1 µM
[27] = second compound 3.16 µM, first compound 0.316 µM
[28] = second compound 3.16 µM, first compound 1 µM
[29] = second compound 3.16 µM, first compound 3.16 µM
[30] = second compound 3.16 µM, first compound 10 µM
[31] = second compound 10 µM, first compound 0.0316 µM
[32] = second compound 10 µM, first compound 0.1 µM
[33] = second compound 10 µM, first compound 0.316 µM
[34] = second compound 10 µM, first compound 1 µM
[35] = second compound 10 µM, first compound 3.16 µM
[36] = second compound 10 µM, first compound 10 µM
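For viability, T/C in this document: 100% = DMSO vehicle control viability.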

- IC50 (second compound 0.0316 µM): 0.425 µM
- IC50 (second compound 0.1 µM): 0.403 µM
- IC50 (second compound 0.316 µM): 0.405 µM
- IC50 (second compound 1 µM): 0.482 µM
- IC50 (second compound 3.16 µM): 0.286 µM
- IC50 (second compound 10 µM): 0.148 µM
SMILES: C#Cc1c(F)ccc2cc(O)cc(-c3ncc4c(N5CC6CCC(C5)N6)nc(OCC56CCCN5CC(F)C6)nc4c3F)c12 (stereo unspecified) + Cc1cnc(CNC(=O)c2c(=O)c3ccc(N4CCCN(C)CC4)nc3n3c2sc2ccccc23)cn1
- viability, T/C [1]: 96.7%
- viability, T/C [2]: 71.8%
- viability, T/C [3]: 52.7%
- viability, T/C [4]: 42.3%
- viability, T/C [5]: 29.4%
- viability, T/C [6]: 26%
- viability, T/C [7]: 75.7%
- viability, T/C [8]: 66%
- viability, T/C [9]: 52%
- viability, T/C [10]: 41.3%
- viability, T/C [11]: 30.1%
- viability, T/C [12]: 27.4%
- viability, T/C [13]: 68%
- viability, T/C [14]: 62.3%
- viability, T/C [15]: 51.7%
- viability, T/C [16]: 42%
- viability, T/C [17]: 37.1%
- viability, T/C [18]: 32.3%
- viability, T/C [19]: 64.6%
- viability, T/C [20]: 56.9%
- viability, T/C [21]: 55.6%
- viability, T/C [22]: 44.2%
- viability, T/C [23]: 41%
- viability, T/C [24]: 40.9%
- viability, T/C [25]: 60.3%
- viability, T/C [26]: 52.5%
- viability, T/C [27]: 52.9%
- viability, T/C [28]: 44.3%
- viability, T/C [29]: 41.5%
- viability, T/C [30]: 41.5%
- viability, T/C [31]: 52.1%
- viability, T/C [32]: 54.5%
- viability, T/C [33]: 49.4%
- viability, T/C [34]: 41.2%
- viability, T/C [35]: 44.8%
- viability, T/C [36]: 43.5%

- IC50 (second compound 0.0316 µM): 0.706 µM
- IC50 (second compound 0.1 µM): 0.907 µM
- IC50 (second compound 0.316 µM): 1.06 µM
- IC50 (second compound 1 µM): 1.27 µM
- IC50 (second compound 3.16 µM): 1.36 µM
- IC50 (second compound 10 µM): 1.4 µM
SMILES: COc1cc(C2c3cc4c(cc3C(OC3OC5COC(C)OC5C(O)C3O)C3COC(=O)C23)OCO4)cc(OC)c1O (stereo unspecified) + Cc1cnc(CNC(=O)c2c(=O)c3ccc(N4CCCN(C)CC4)nc3n3c2sc2ccccc23)cn1
- viability, T/C [1]: 94.5%
- viability, T/C [2]: 79.3%
- viability, T/C [3]: 63.4%
- viability, T/C [4]: 42.5%
- viability, T/C [5]: 31.4%
- viability, T/C [6]: 17.4%
- viability, T/C [7]: 83.7%
- viability, T/C [8]: 75.2%
- viability, T/C [9]: 60.5%
- viability, T/C [10]: 52.3%
- viability, T/C [11]: 30.6%
- viability, T/C [12]: 16.7%
- viability, T/C [13]: 69.9%
- viability, T/C [14]: 74.2%
- viability, T/C [15]: 59.9%
- viability, T/C [16]: 49.5%
- viability, T/C [17]: 36.7%
- viability, T/C [18]: 18.1%
- viability, T/C [19]: 65.4%
- viability, T/C [20]: 61%
- viability, T/C [21]: 59.1%
- viability, T/C [22]: 53.3%
- viability, T/C [23]: 39.9%
- viability, T/C [24]: 19.3%
- viability, T/C [25]: 60.3%
- viability, T/C [26]: 60.2%
- viability, T/C [27]: 60%
- viability, T/C [28]: 53.3%
- viability, T/C [29]: 39.7%
- viability, T/C [30]: 20.9%
- viability, T/C [31]: 58%
- viability, T/C [32]: 57.7%
- viability, T/C [33]: 52.9%
- viability, T/C [34]: 55%
- viability, T/C [35]: 39%
- viability, T/C [36]: 21.1%

- IC50 (second compound 0.0316 µM): > 10 µM
- IC50 (second compound 0.1 µM): > 10 µM
- IC50 (second compound 0.316 µM): > 10 µM
- IC50 (second compound 1 µM): > 10 µM
- IC50 (second compound 3.16 µM): > 10 µM
- IC50 (second compound 10 µM): > 10 µM
SMILES: COc1ncnc(C2CC2)c1-c1ncc2cnn(Cc3ccc(-c4nc(C(F)(F)F)cn4C(C)C)cc3)c2n1 + Cc1cnc(CNC(=O)c2c(=O)c3ccc(N4CCCN(C)CC4)nc3n3c2sc2ccccc23)cn1
- viability, T/C [1]: 93.6%
- viability, T/C [2]: 85.3%
- viability, T/C [3]: 82.4%
- viability, T/C [4]: 85.4%
- viability, T/C [5]: 92%
- viability, T/C [6]: 87%
- viability, T/C [7]: 76.2%
- viability, T/C [8]: 83%
- viability, T/C [9]: 70%
- viability, T/C [10]: 81.7%
- viability, T/C [11]: 73.9%
- viability, T/C [12]: 71.2%
- viability, T/C [13]: 72.1%
- viability, T/C [14]: 74.3%
- viability, T/C [15]: 69.5%
- viability, T/C [16]: 65.8%
- viability, T/C [17]: 71.1%
- viability, T/C [18]: 63.3%
- viability, T/C [19]: 69%
- viability, T/C [20]: 61.3%
- viability, T/C [21]: 62.3%
- viability, T/C [22]: 62.6%
- viability, T/C [23]: 63.5%
- viability, T/C [24]: 66.2%
- viability, T/C [25]: 67.3%
- viability, T/C [26]: 57.6%
- viability, T/C [27]: 61.2%
- viability, T/C [28]: 56.4%
- viability, T/C [29]: 62%
- viability, T/C [30]: 66.2%
- viability, T/C [31]: 53.4%
- viability, T/C [32]: 56.9%
- viability, T/C [33]: 54.2%
- viability, T/C [34]: 57.3%
- viability, T/C [35]: 63.1%
- viability, T/C [36]: 56.3%
